In patent publication US10294202B2, “Pyrrolidinones as herbicides” (FMC Corporation, priority 2013, dated 2019):

Assays:
Assay in all cases: Test C pre-/postemergence herbicide test
bermudagrass = format: in vivo, Cynodon dactylon
Summary of the method: (§1)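 Visual rating, 0 (no effect) to 100 (complete control), versus untreated controls after 13 to 15 days in the greenhouse. Pre: seeds in loam/sand, sprayed at planting. Post: 1- to 4-leaf plants (2 to 18 cm) in peat-based mix. Compounds in non-phytotoxic solvent plus surfactant.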

foxtail, green = format: in vivo, Setaria viridis
Summary of the method: as §1

bromegrass, downy = format: in vivo, Bromus tectorum
Summary of the method: as §1

goosegrass = format: in vivo, Eleusine indica
Summary of the method: as §1

nightshade = format: in vivo, Solanum ptycanthum; settings: Preemergence
Summary of the method: as §1

sunflower = format: in vivo, Helianthus annuus; settings: Preemergence
Summary of the method: as §1

Russian thistle = format: in vivo, Salsola kali; settings: Preemergence
Text: Seeds of plant species selected from blackgrass (Alopecurus myosuroides), ryegrass, Italian (Italian ryegrass, Lolium multiflorum), wheat (winter wheat, Triticum aestivum), galium (catchweed bedstraw, Galium aparine), corn (Zea mays), crabgrass, large (large crabgrass, Digitaria sanguinalis), foxtail, giant (giant foxtail, Setaria faberii), johnsongrass (Sorghum halepense), lambsquarters (Chenopodium album), morningglory (Ipomoea coccinea), nutsedge, yellow (yellow nutsedge, Cyperus esculentus), pigweed (Amaranthus retroflexus), ragweed (common ragweed, Ambrosia elatior), soybean (Glycine max), barnyardgrass (Echinochloa crus-galli), oilseed rape (Brassica napus), waterhemp (common waterhemp, Amaranthus rudis), kochia (Kochia scoparia), oat, wild (wild oat, Avena fatua), surinam grass (Brachiaria decumbens), foxtail, green (green foxtail, Setaria viridis), goosegrass (Eleusine indica), bromegrass, downy (downy bromegrass, Bromus tectorum), nightshade (eastern black nightshade, Solanum ptycanthum), cocklebur (common cocklebur, Xanthium strumarium), cupgrass, woolly (woolly cupgrass, Eriochloa villosa), bermudagrass (Cynodon dactylon), sunflower, (common oilseed sunflower, Helianthus annuus), Russian thistle (Salsola kali) and velvetleaf (Abutilon theophrasti) were planted into a blend of loam soil and sand and treated preemergence with test chemicals formulated in a non-phytotoxic solvent mixture which included a surfactant. At the same time, plants selected from these crop and weed species and also barley (winter barley, Hordeum vulgare), […]), chickweed (common chickweed, Stellaria media), deadnettle (henbit deadnettle, Lamium amplexicaule), and canarygrass (littleseed canarygrass, Phalaris minor) were planted in pots containing Redi-Earth® planting medium (Scotts Company, 14111 Scottslawn Road, Marysville, Ohio 43041) comprising spaghnum peat moss, vermiculite, wetting agent and starter nutrients and treated with postemergence applications of test chemicals formulated in the same manner. Plants ranged in height from 2 to 18 cm (1- to 4-leaf stage) for postemergence treatments. Treated plants and controls were maintained in a greenhouse for 13 to 15 days, after which time all species were compared to controls and visually evaluated. Plant response ratings, summarized in Table C, are based on a scale of 0 to 100 where 0 is no effect and 100 is complete control. A dash (-) response means no test result.

cupgrass, woolly = format: in vivo, Eriochloa villosa
Summary of the method: as §1

surinam grass = format: in vivo, Brachiaria decumbens
Summary of the method: as §1

cocklebur = format: in vivo, Xanthium strumarium
Summary of the method: as §1

[1] = Postemergence, 31 g ai/ha, scale 0 (no effect) to 100 (complete control)
[2] = Postemergence, 62 g ai/ha, scale 0 to 100 (0 no effect, 100 complete control)
[3] = Postemergence, 125 g ai/ha, scale 0 to 100 (0 no effect, 100 complete control)
[4] = Postemergence, 250 g ai/ha, scale 0 to 100 (0 no effect, 100 complete control)
[5] = Preemergence, 31 g ai/ha, scale 0 to 100, 0 is no effect and 100 is complete control
[6] = Preemergence, 62 g ai/ha, scale 0 to 100
[7] = Preemergence, 125 g ai/ha, scale 0 to 100 (0 no effect, 100 complete control)
[8] = 31 g ai/ha, scale 0 to 100, 0 is no effect and 100 is complete control
[9] = 125 g ai/ha, scale 0 to 100 (0 no effect, 100 complete control)
[10] = Preemergence, 31 g ai/ha, scale 0 to 100 (0 no effect, 100 complete control)
[11] = Preemergence, 250 g ai/ha, scale 0 to 100 (0 no effect, 100 complete control)

Compound: O=C1NCC(c2ccccc2)C1C(=O)Nc1ccccc1F (racemic) [Compound 81]
- Plant response rating, Bermudagrass (bermudagrass; [1]): 0
- Plant response rating, Bermudagrass (bermudagrass; [2]): 0
- Plant response rating, Bermudagrass (bermudagrass; [3]): 0
- Plant response rating, Bermudagrass (bermudagrass; [4]): 0
- Bermudagrass plant response rating (bermudagrass; [5]): 0
- Plant response rating, Bermudagrass (bermudagrass; [6]): 0
- Plant response rating, Bermudagrass (bermudagrass; [7]): 0
- Plant response rating (scale of 0 to 100), Bermudagrass (bermudagrass; Preemergence, 250 g ai/ha): 0
- Plant response rating, Foxtail, Green (foxtail, green; [1]): 5
- Plant response rating, Foxtail, Green (foxtail, green; [2]): 5
- Plant response rating, Foxtail, Green (foxtail, green; [3]): 20
- Plant response rating, Foxtail, Green (foxtail, green; [4]): 48
- Foxtail, Green plant response rating (foxtail, green; [5]): 20
- Plant response rating, Foxtail, Green (foxtail, green; [6]): 67
- Plant response rating, Foxtail, Green (foxtail, green; [7]): 80
- Plant response rating (scale of 0 to 100), Foxtail, Green (foxtail, green; Preemergence, 250 g ai/ha): 90
- Plant response rating, Bromegrass, Downy (bromegrass, downy; [1]): 0
- Plant response rating, Bromegrass, Downy (bromegrass, downy; [2]): 0
- Plant response rating, Bromegrass, Downy (bromegrass, downy; [3]): 0
- Plant response rating, Bromegrass, Downy (bromegrass, downy; [4]): 7
- Bromegrass, Downy plant response rating (bromegrass, downy; [5]): 0
- Plant response rating, Bromegrass, Downy (bromegrass, downy; [6]): 0
- Plant response rating, Bromegrass, Downy (bromegrass, downy; [7]): 0
- Plant response rating (scale of 0 to 100), Bromegrass, Downy (bromegrass, downy; Preemergence, 250 g ai/ha): 0
- Plant response rating, Goosegrass (goosegrass; [1]): 0
- Plant response rating, Goosegrass (goosegrass; [2]): 0
- Plant response rating, Goosegrass (goosegrass; [3]): 0
- Plant response rating, Goosegrass (goosegrass; [4]): 0
- Goosegrass plant response rating (goosegrass; [5]): 0
- Plant response rating, Goosegrass (goosegrass; [6]): 0
- Plant response rating, Goosegrass (goosegrass; [7]): 0
- Plant response rating (scale of 0 to 100), Goosegrass (goosegrass; Preemergence, 250 g ai/ha): 0
- Nightshade plant response rating (nightshade; [8]): 0
- Plant response rating, Nightshade (nightshade; 62 g ai/ha, scale 0 to 100): 0
- Plant response rating, Nightshade (nightshade; [9]): 0
- Plant response rating (scale of 0 to 100), Nightshade (nightshade; 250 g ai/ha): 0
- Sunflower plant response rating (sunflower; [8]): 0
- Plant response rating Sunflower (sunflower; 62 g ai/ha, scale 0 to 100): 0
- Plant response rating Sunflower (sunflower; [9]): 0
- Plant response rating (scale of 0 to 100), Sunflower (sunflower; 250 g ai/ha): 0
- Russian Thistle plant response rating (Russian thistle; [8]): 0
- Plant response rating, Russian Thistle (Russian thistle; 62 g ai/ha, scale 0 to 100): 0
- Plant response rating, Russian Thistle (Russian thistle; [9]): 0
- Plant response rating (scale of 0 to 100), Russian Thistle (Russian thistle; 250 g ai/ha): 0
- Plant response rating, Cupgrass, Woolly (cupgrass, woolly; [1]): 0
- Plant response rating, Cupgrass, Woolly (cupgrass, woolly; [2]): 0
- Plant response rating, Cupgrass, Woolly (cupgrass, woolly; [3]): 0
- Plant response rating, Cupgrass, Woolly (cupgrass, woolly; [4]): 0
- Cupgrass, Woolly plant response rating (cupgrass, woolly; [5]): 0
- Plant response rating, Cupgrass, Woolly (cupgrass, woolly; [6]): 32
- Plant response rating, Cupgrass, Woolly (cupgrass, woolly; [7]): 67
- Plant response rating (scale of 0 to 100), Cupgrass, Woolly (cupgrass, woolly; Preemergence, 250 g ai/ha): 82
- Plant response rating, Surinam Grass (surinam grass; [1]): 0
- Plant response rating, Surinam Grass (surinam grass; [2]): 0
- Plant response rating, Surinam Grass (surinam grass; [3]): 0
- Plant response rating, Surinam Grass (surinam grass; [4]): 0
- Surinam Grass plant response rating (surinam grass; [5]): 0
- Plant response rating, Surinam Grass (surinam grass; [6]): 53
- Plant response rating, Surinam Grass (surinam grass; [7]): 77
- Plant response rating (scale of 0 to 100), Surinam Grass (surinam grass; Preemergence, 250 g ai/ha): 90
- Plant response rating, Cocklebur (cocklebur; [1]): 0
- Plant response rating, Cocklebur (cocklebur; [2]): 0
- Plant response rating, Cocklebur (cocklebur; [3]): 0
- Plant response rating, Cocklebur (cocklebur; [4]): 0
- Cocklebur plant response rating (cocklebur; [5]): 0
- Plant response rating, Cocklebur (cocklebur; [6]): 0
- Plant response rating, Cocklebur (cocklebur; [7]): 0
- Plant response rating (scale of 0 to 100), Cocklebur (cocklebur; Preemergence, 250 g ai/ha): 0

Compound: O=C1NCC(c2ccc(F)c(Cl)c2)C1C(=O)Nc1cccc(F)c1F (centres unmarked) [Compound 59]
- Bermudagrass plant response rating (bermudagrass; [10]): 20
- Plant response rating, Bermudagrass (bermudagrass; [6]): 20
- Plant response rating, Bermudagrass (bermudagrass; [7]): 40
- Plant response rating, Bermudagrass (bermudagrass; [11]): 50
- Foxtail, Green plant response rating (foxtail, green; [10]): 85
- Plant response rating, Foxtail, Green (foxtail, green; [6]): 90
- Plant response rating, Foxtail, Green (foxtail, green; [7]): 90
- Plant response rating, Foxtail, Green (foxtail, green; [11]): 98
- Bromegrass, Downy plant response rating (bromegrass, downy; [10]): 0
- Plant response rating, Bromegrass, Downy (bromegrass, downy; [6]): 0
- Plant response rating, Bromegrass, Downy (bromegrass, downy; [7]): 0
- Plant response rating, Bromegrass, Downy (bromegrass, downy; [11]): 20
- Goosegrass plant response rating (goosegrass; [10]): 15
- Plant response rating, Goosegrass (goosegrass; [6]): 25
- Plant response rating, Goosegrass (goosegrass; [7]): 35
- Plant response rating, Nightshade (nightshade; [9]): 25
- Plant response rating Sunflower (sunflower; 62 g ai/ha, scale 0 to 100): 5
- Plant response rating Sunflower (sunflower; [9]): 15
- Plant response rating, Russian Thistle (Russian thistle; 62 g ai/ha, scale 0 to 100): 0
- Plant response rating, Russian Thistle (Russian thistle; [9]): 0
- Cupgrass, Woolly plant response rating (cupgrass, woolly; [10]): 40
- Plant response rating, Cupgrass, Woolly (cupgrass, woolly; [6]): 70
- Plant response rating, Cupgrass, Woolly (cupgrass, woolly; [7]): 80
- Plant response rating, Cupgrass, Woolly (cupgrass, woolly; [11]): 80
- Plant response rating, Surinam Grass (surinam grass; [6]): 35
- Plant response rating, Surinam Grass (surinam grass; [7]): 60
- Plant response rating, Cocklebur (cocklebur; [6]): 0

Compound: O=C1NCC(c2ccc3c(c2)OC(F)(F)O3)C1C(=O)Nc1cccc(F)c1F (centres unmarked) [Compound 62]
- Bermudagrass plant response rating (bermudagrass; [10]): 0
- Plant response rating, Bermudagrass (bermudagrass; [6]): 30
- Plant response rating, Bermudagrass (bermudagrass; [7]): 50
- Plant response rating, Bermudagrass (bermudagrass; [11]): 60
- Foxtail, Green plant response rating (foxtail, green; [10]): 75
- Plant response rating, Foxtail, Green (foxtail, green; [6]): 90
- Plant response rating, Foxtail, Green (foxtail, green; [7]): 90
- Plant response rating, Foxtail, Green (foxtail, green; [11]): 90
- Bromegrass, Downy plant response rating (bromegrass, downy; [10]): 0
- Plant response rating, Bromegrass, Downy (bromegrass, downy; [6]): 0
- Plant response rating, Bromegrass, Downy (bromegrass, downy; [7]): 0
- Plant response rating, Bromegrass, Downy (bromegrass, downy; [11]): 0
- Goosegrass plant response rating (goosegrass; [10]): 10
- Plant response rating, Goosegrass (goosegrass; [6]): 25
- Plant response rating, Goosegrass (goosegrass; [7]): 70
- Plant response rating, Nightshade (nightshade; 62 g ai/ha, scale 0 to 100): 15
- Plant response rating Sunflower (sunflower; 62 g ai/ha, scale 0 to 100): 20
- Plant response rating Sunflower (sunflower; [9]): 25
- Plant response rating, Russian Thistle (Russian thistle; 62 g ai/ha, scale 0 to 100): 30
- Plant response rating, Russian Thistle (Russian thistle; [9]): 85
- Cupgrass, Woolly plant response rating (cupgrass, woolly; [10]): 65
- Plant response rating, Cupgrass, Woolly (cupgrass, woolly; [6]): 75
- Plant response rating, Cupgrass, Woolly (cupgrass, woolly; [7]): 80
- Plant response rating, Cupgrass, Woolly (cupgrass, woolly; [11]): 85
- Plant response rating, Surinam Grass (surinam grass; [6]): 60
- Plant response rating, Surinam Grass (surinam grass; [7]): 80
- Cocklebur plant response rating (cocklebur; [10]): 0
- Plant response rating, Cocklebur (cocklebur; [7]): 0
- Plant response rating, Cocklebur (cocklebur; [11]): 5

Compound: O=C1NCC(c2cccc(Br)c2)C1C(=O)Nc1cccc(F)c1F (centres unmarked) [Compound 64]
- Bermudagrass plant response rating (bermudagrass; [10]): 0
- Plant response rating, Bermudagrass (bermudagrass; [6]): 0
- Plant response rating, Bermudagrass (bermudagrass; [7]): 25
- Plant response rating, Bermudagrass (bermudagrass; [11]): 55
- Foxtail, Green plant response rating (foxtail, green; [10]): 70
- Plant response rating, Foxtail, Green (foxtail, green; [6]): 85
- Plant response rating, Foxtail, Green (foxtail, green; [7]): 90
- Plant response rating, Foxtail, Green (foxtail, green; [11]): 98
- Bromegrass, Downy plant response rating (bromegrass, downy; [10]): 0
- Plant response rating, Bromegrass, Downy (bromegrass, downy; [6]): 0
- Plant response rating, Bromegrass, Downy (bromegrass, downy; [7]): 0
- Plant response rating, Bromegrass, Downy (bromegrass, downy; [11]): 50
- Goosegrass plant response rating (goosegrass; [10]): 20
- Plant response rating, Goosegrass (goosegrass; [6]): 20
- Plant response rating, Goosegrass (goosegrass; [7]): 25
- Plant response rating, Nightshade (nightshade; 62 g ai/ha, scale 0 to 100): 0
- Plant response rating, Nightshade (nightshade; [9]): 0
- Plant response rating Sunflower (sunflower; 62 g ai/ha, scale 0 to 100): 0
- Plant response rating Sunflower (sunflower; [9]): 0
- Plant response rating, Russian Thistle (Russian thistle; 62 g ai/ha, scale 0 to 100): 0
- Plant response rating, Russian Thistle (Russian thistle; [9]): 0
- Cupgrass, Woolly plant response rating (cupgrass, woolly; [10]): 30
- Plant response rating, Cupgrass, Woolly (cupgrass, woolly; [6]): 70
- Plant response rating, Cupgrass, Woolly (cupgrass, woolly; [7]): 85
- Plant response rating, Cupgrass, Woolly (cupgrass, woolly; [11]): 90
- Plant response rating, Surinam Grass (surinam grass; [6]): 50
- Plant response rating, Surinam Grass (surinam grass; [7]): 65
- Plant response rating, Cocklebur (cocklebur; [6]): 0
